Laboratory results taken from publication PMC3928365, “Species-Selective Killing of Bacteria by Antimicrobial Peptide-PNAs” (PLoS ONE, 2014).

Legend:
Test in all cases: Antibiotic disc susceptibility testing (BSAC method)
Details in all cases: antibiotic disks (Oxoid), amount per disc per antibiotic (5-30 μg)
E. coli = format: cell-based, Escherichia coli
Experimental: (§1) Strains were tested with twenty different antibiotic disks (Oxoid, UK) representing the major classes of antimicrobial compounds. Tests were done according to the standardized disc susceptibility testing method of the British Society for Antimicrobial Chemotherapy, [37]. The minimum inhibitory concentration (MIC) of the peptide-PNA conjugants were determined using a method modified from Hacek et al and Friedman et al: Peptide-PNA conjugants, obtained as lyophilized powder (Panagene, Korea), were dissolved in ddH20. MIC assays were performed in an ultra low-bind (Costar, UK) polystyrene 96-well plate format in a final volume of 150 µl MMLB. An extended gradient of peptide-PNA concentrations was created by combining five sets of twofold serial dilutions from four starting concentrations (10, 4.8, 3.2 […]); giving 55 final peptide-PNA concentrations which extended over five rows of the 96-well plate. All cultures were incubated at 35°C for 16 h without shaking or agitation. Each peptide-PNA MIC calculation was performed in triplicate, each replicate representing a different starting colony. Mixed-culture experiments were conducted as above with a 1×10^4 CFU/ml starting inoculum. For growth curve analysis, 200 µl cultures were grown in a BioTek PowerWave HT spectrophotometer, under constant agitation at 37°C in a 96-well plate covered with a breathable film. Growth (OD550) was monitored every 5 mins, each experiment was performed in triplicate.

S. Typhimurium = format: cell-based, Salmonella enterica serovar Typhimurium
Experimental: as §1

K. pneumoniae = format: cell-based, Klebsiella pneumoniae
Experimental: as §1

B. subtilis = format: cell-based, Bacillus subtilis
Experimental: as §1, with “For growth curve analysis, 200 µl cultures were grown in a BioTek PowerWave HT spectrophotometer, under constant agitation at 37°C in a 96-well plate covered with a breathable film.” left out

| Compound | Sensitive (S)/Resistant (R), E. coli (E. coli) | Sensitive (S)/Resistant (R), S. Typhimurium (S. Typhimurium) | Sensitive (S)/Resistant (R), K. pneumoniae (K. pneumoniae) | Sensitive (S)/Resistant (R), B. subtilis (B. subtilis) |
| --- | --- | --- | --- | --- |
| NCC[C@H](O)C(=O)N[C@@H]1C[C@H](N)[C@@H](O[C@H]2O[C@H](CN)[C@@H](O)[C@H](O)[C@H]2O)[C@H](O)[C@H]1O[C@H]1O[C@H](CO)[C@@H](O)[C@H](N)[C@H]1O [Amikacin] | S | S | S |  |
| CC1(C)S[C@@H]2[C@H](NC(=O)[C@H](N)c3ccc(O)cc3)C(=O)N2[C@H]1C(=O)O [Amoxicillin] | S | S | R |  |
| CC[C@H]1OC(=O)[C@H](C)[C@@H](O[C@H]2C[C@@](C)(OC)[C@@H](O)[C@H](C)O2)[C@H](C)[C@@H](O[C@@H]2O[C@H](C)C[C@H](N(C)C)[C@H]2O)[C@](C)(O)C[C@@H](C)CN(C)[C@H](C)[C@@H](O)[C@]1(C)O [Azithromycin] | R | R | R |  |
| CC1=C(C(=O)O)N2C(=O)[C@@H](NC(=O)[C@H](N)c3ccccc3)[C@H]2SC1 [Cefalexin] | S | S | S |  |
| CO/N=C(\C(=O)N[C@@H]1C(=O)N2C(C(=O)O)=C(COC(C)=O)CS[C@H]12)c1csc(N)n1 [Cefotaxime] | S | S | S |  |
| CO/N=C(\C(=O)N[C@@H]1C(=O)N2C(C(=O)O)=C(COC(N)=O)CS[C@H]12)c1ccco1 [Cefuroxime] | S | S | S |  |
| CCC[C@@H]1C[C@@H](C(=O)N[C@@H]([C@H]2O[C@H](SC)[C@H](O)[C@@H](O)[C@H]2O)[C@H](C)Cl)N(C)C1 [Clindamycin] | R | R | R |  |
| CC[C@H]1OC(=O)[C@H](C)[C@@H](O[C@H]2C[C@@](C)(OC)[C@@H](O)[C@H](C)O2)[C@H](C)[C@@H](O[C@@H]2O[C@H](C)C[C@H](N(C)C)[C@H]2O)[C@](C)(O)C[C@@H](C)C(=O)[C@H](C)[C@@H](O)[C@]1(C)O [Erythromycin] | R | R | R |  |
| CN1CCN(c2c(F)cc3c(=O)c(C(=O)O)cn(CCF)c3c2F)CC1 [Fleroxacin] | S |  | S |  |
| CNC(C)C1CCC(N)C(OC2C(N)CC(N)C(OC3OCC(C)(O)C(NC)C3O)C2O)O1 (stereo not shown) [Gentamicin] | S | S | R |  |
| C[C@@H](O)[C@H]1C(=O)N2C(C(=O)O)=C(SCCN=CN)C[C@H]12 [Imipenem] | S | S | S |  |
| CCC[C@@H]1C[C@@H](C(=O)N[C@@H]([C@H]2O[C@H](SC)[C@H](O)[C@@H](O)[C@H]2O)[C@@H](C)O)N(C)C1 [Lincomycin] | R | R | R |  |
| COc1cccc(OC)c1C(=O)N[C@@H]1C(=O)N2[C@@H]1SC(C)(C)[C@@H]2C(=O)O [Methicillin] | S | S | R |  |
| CCn1cc(C(=O)O)c(=O)c2ccc(C)nc21 [Nalidixic acid] | S | S | S |  |
| CC1COc2c(N3CCN(C)CC3)c(F)cc3c(=O)c(C(=O)O)cn1c23 (stereo not shown) [Oflaxacin] | S | S | S | S |
| CCn1cc(C(=O)O)c(=O)c2cnc(N3CCNCC3)nc21 [Pipemidic acid] | S | S | S |  |
| [H]/N=C(/N)N[C@H]1[C@H](O)[C@@H](O)[C@H](O[C@@H]2O[C@@H](C)[C@](O)(C=O)[C@H]2O[C@@H]2O[C@@H](CO)[C@H](O)[C@@H](O)[C@@H]2NC)[C@@H](N/C(N)=N\[H])[C@@H]1O [Streptomycin] | R | S | S |  |
| COc1cc(Cc2cnc(N)nc2N)cc(OC)c1OC [Trimethoprim] | S | S | R |  |
| CN[C@H](CC(C)C)C(=O)N[C@H]1C(=O)N[C@@H](CC(N)=O)C(=O)N[C@H]2C(=O)N[C@H]3C(=O)N[C@H](C(=O)N[C@H](C(=O)O)c4cc(O)cc(O)c4-c4cc3ccc4O)[C@H](O)c3ccc(c(Cl)c3)Oc3cc2cc(c3O[C@@H]2O[C@H](CO)[C@@H](O)[C@H](O)[C@H]2O[C@H]2C[C@](C)(N)[C@H](O)[C@H](C)O2)Oc2ccc(cc2Cl)[C@H]1O [Vancomycin] | R | R | R |  |
| Neomycin | S | S | S | S |
